Measurements reported in patent publication US20090047243A1, “COMBINATIONS FOR THE TREATMENT OF B-CELL PROLIFERATIVE DISORDERS” (priority 2007, published 2009).

Columns and labels:
[1] = system: H929 multiple myeloma cell line; experiment: Anti-proliferation assay (ATPLite, 72 h); format: cell-based, human; set-up: key: S = lnfX·lnfY·ΣIdata(Idata−ILoewe), volume over Loewe additivity
Method in brief: (§1)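 Cell viability was read by ATPLite luminescence after compound exposure. ANBL6 medium carried 10 ng/ml IL-6. Compounds were serially diluted 2- or 3-fold over 12 concentrations for single-agent curves, and percent inhibition was calculated relative to the mean of untreated wells.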

[2] = system: RPMI-8226 multiple myeloma cell line; experiment: Anti-proliferation assay (ATPLite, 72 h); format: cell-based, human; set-up: key: S = lnfX·lnfY·ΣIdata(Idata−ILoewe), volume over Loewe additivity
Method in brief: as §1

[3] = system: human multiple myeloma cells (MM.1S); experiment: Anti-proliferation assay (ATPLite, 72 h); format: cell-based; set-up: key to synergy score / synergy (score), PDEi × HE-NECA: S = lnfX·lnfY·ΣIdata(Idata−ILoewe), volume over Loewe additivity
Method in brief: as §1

[4] = system: phosphodiesterase (PDE) types; conditions: PDE type(s) in brackets after the name; cited from earlier work
patient CLL cells = experiment: Apoptosis assay (Hoechst 33342, flow cytometry, 48 h); format: cell-based, human; set-up: unit not given here; conditions: CGS-21680 0 μM
Text: Blood samples were obtained in heparinized tubes with IRB-approved consent from flow cytometry-confirmed B-CLL patients that were either untreated or for whom at least 1 month had elapsed since chemotherapy. Patients with active infections or other serious medical conditions were not included in this study. Patients with white blood cell counts of less than 15,000/μl by automated analysis were excluded from this study. Whole blood was layered on Ficoll-Hystopaque (Sigma), and peripheral blood mononuclear cells (PBMC) isolated after centrification. […] One million cells were stained with anti-CD5-PE and anti-CD19-PE-Cy5 (Becton Dickenson, Franklin Lakes N.J.). The percentage of B-CLL cells was defined as the percentage of cells doubly expressing CD5 and CDl9, as determined by flow cytometry. […] Compound master plates were diluted 1:50 into complete media to create working compound dilutions. Compound crosses were then created by diluting two working dilution plates 1:10 into each plate of cells. […] Hoechst 33342 (Molecular Probes, Eugene Oreg.) at a final concentration of 0.25 μg/1 mL was added to each well, and the cells incubated at 37° C. for an additional ten minutes before being placed on ice until analysis. Plates were then analyzed on a LSR-II flow cytometer (Becton Dickenson, Franklin Lakes, N.J.) equipped with the High Throughput Sampling (HTS) option in high throughput mode. […] The apoptotic fraction was calculated using FlowJo software (Tree Star Inc., Ashland, Oreg.) after excluding debris by a FSC/SSC gate and subsequently gating for cells that accumulate the Hoechst dye.

[5] = system: human multiple myeloma cells (MM.1R); experiment: Anti-proliferation assay (ATPLite, 72 h); format: cell-based; set-up: key: S = lnfX·lnfY·ΣIdata(Idata−ILoewe), volume over Loewe additivity
Method in brief: as §1

MOLP-8 MM cell line = experiment: Anti-proliferation assay (ATPLite, 72 h); format: cell-based, human; conditions: CGS-21680 × PDE inhibitor
Experimental: (§2) ANBL6 and INA-6 culture media was also supplemented with 10 ng/ml IL-6. […] MM.1S, MM.1R, OCI-ly10, Karpas 422, and SU-DHL6 cells were provided by the Dana Farber Cancer Institute. H929, RPMI-8226, GA-10, and Farage cells were from ATCC (Cat #'s CCL-155, CRL-9068, CRL-2392 and CRL-2630 respectively). MOLP-8, EJM, KSM-12-PE, and OPM2 were from DSMZ. The ANBL6 and INA-6 cell lines were provided by the M. D. Anderson Cancer Research Center. Compounds were prepared in DMSO at 1000× the highest desired concentration. Master plates were generated consisting of serially diluted compounds in 2- or 3-fold dilutions in 384-well format. For single agent dose response curves, the master plates consisted of 9 individual compounds at 12 concentrations in 2- or 3-fold dilutions. For combination matrices, master plates consisted of individual compounds at 6 or 9 concentrations at 2- or 3-fold dilutions. […] To obtain combination data, two master plates were diluted into the assay plates. […] Thirty microliters of ATPLite (Perkin Elmer) at room temperature was then added to each well. […] Measurements were taken at the top of the well using a luminescence aperture and a read time of 0.1 seconds per well. The percent inhibition (% I) for each well was calculated using the following formula: % I=[(avg. untreated wells-treated well)/(avg. untreated wells)]×100. […] Negative inhibition values result from local variations in treated wells as compared to untreated wells. […] The uncertainty of each fitted parameter was estimated from the range over which the change in reduced chi-squared was less than one, or less than minimum reduced chi-squared if that minimum exceeded one, to allow for underestimated σI errors. Single agent curve data were used to define a dilution series for each compound to be used for combination screening in a 6×6 matrix format. […] The Loewe additivity model was used to quantify combination effects. […] A “Synergy Score” was also used, where the Synergy Score S=log fX log fY ΣIdata(Idata-ILoewe), summed over all non-single-agent concentration pairs, and where log fX,Y is the natural logarithm of the dilution factors used for each single agent. This effectively calculates a volume between the measured and Loewe additive response surfaces, weighted towards high inhibition and corrected for varying dilution factors. An uncertainty σS was calculated for each synergy score, based on the measured errors for the Idata values and standard error propagation.

EJM MM cell line = experiment: Anti-proliferation assay (ATPLite, 72 h); format: cell-based, human; conditions: CGS-21680 × PDE inhibitor
Experimental: as §2

ANBL6 MM cell line = experiment: Anti-proliferation assay (ATPLite, 72 h); format: cell-based, human; conditions: CGS-21680 × PDE inhibitor
Experimental: as §2

KSM-12-PE MM cell line = experiment: Anti-proliferation assay (ATPLite, 72 h); format: cell-based, human; conditions: CGS-21680 × PDE inhibitor
Experimental: as §2

OPM2 MM cell line = experiment: Anti-proliferation assay (ATPLite, 72 h); format: cell-based, human; conditions: CGS-21680 × PDE inhibitor
Experimental: as §2

INA-6 MM cell line = experiment: Anti-proliferation assay (ATPLite, 72 h); format: cell-based, human; conditions: CGS-21680 × PDE inhibitor
Experimental: as §2

## O=C(Nc1c(Cl)cncc1Cl)c1ccc(OC(F)F)c(OCC2CC2)c1 [Roflumilast, 3-(cyclopropylmethoxy)-N-(3,5-dichloro-4-pyridinyl)-4-(difluoromethoxy)-benzamide]
[1]; PDE inhibitor crossed with (S) ENBA, H929
  synergy score: 1.77
[1]; PDE inhibitor crossed with Chloro-IB-MECA, H929
  synergy score: 1.16
[1]; PDE inhibitor crossed with HE-NECA, H929
  synergy score: 0.98
[1]; in combination with adenosine receptor agonist CGS-21680, H929
  synergy score: 3.71
[1]; in combination with adenosine receptor agonist HE-NECA, H929
  synergy score: 0.98
[1]; in combination with adenosine receptor agonist regadenoson, H929
  synergy score: 2.7
[2]; in combination with adenosine receptor agonist CGS-21680, RPMI 8226
  synergy score: 0.69
[2]; in combination with adenosine receptor agonist HE-NECA, RPMI-8226
  synergy score: 0.466
[2]; in combination with adenosine receptor agonist regadenoson, RPMI 8226
  synergy score: 1.12
[3]; Homo sapiens, MM1.S, Roflumilast 0.0631 μM, Cl-IB-MECA conc. (μM), read-out: Percent inhibition of ATP in MM.1S cells
  inhibition at 0.0631 µM: -7.1%
[3]; Homo sapiens, MM1.S, Roflumilast 0.126 μM, Cl-IB-MECA conc. (μM), read-out: Percent inhibition of ATP in MM.1S cells
  inhibition at 0.126 µM: 1.5%
[3]; Homo sapiens, MM1.S, Roflumilast 0.252 μM, Cl-IB-MECA conc. (μM), read-out: Percent inhibition of ATP in MM.1S cells
  inhibition at 0.252 µM: -3.5%
[3]; Homo sapiens, MM1.S, Roflumilast 0.505 μM, Cl-IB-MECA conc. (μM), read-out: Percent inhibition of ATP in MM.1S cells
  inhibition at 0.505 µM: 11%
[3]; Homo sapiens, MM1.S, Roflumilast 1.01 μM, Cl-IB-MECA conc. (μM), read-out: Percent inhibition of ATP in MM.1S cells
  inhibition at 1.01 µM: 7.5%
[3]; PDE inhibitor crossed with (S) ENBA, MM.1S
  synergy score: 2.19
[3]; PDE inhibitor crossed with Chloro-IB-MECA, MM.1S
  synergy score: 2.12
[3]; PDE inhibitor crossed with HE-NECA, MM.1S
  synergy score: 2
[3]; in combination with adenosine receptor agonist CGS-21680, MM.1S
  synergy score: 3.82
[3]; in combination with adenosine receptor agonist HE-NECA, MM.1S
  synergy score: 2
[3]; in combination with adenosine receptor agonist regadenoson, MM.1S
  synergy score: 3.56
[4]
  PDE inhibitors (specificity): Roflumilast (4)
Patient CLL cells; Roflumilast 0.03 μM
  Induction of apoptosis: 17
Patient CLL cells; Roflumilast 0.09 μM
  Induction of apoptosis: 26
Patient CLL cells; Roflumilast 0.27 μM
  Induction of apoptosis: 32
[5]; in combination with adenosine receptor agonist CGS-21680, MM.1R
  synergy score: 3.61
[5]; in combination with adenosine receptor agonist regadenoson, MM.1R
  synergy score: 5.83
MOLP-8 MM cell line
  synergy score: 3.44
EJM MM cell line
  synergy score: 1.06
ANBL6 MM cell line
  synergy score: 3.73
KSM-12-PE MM cell line
  synergy score: 0.27
OPM2 MM cell line
  synergy score: 0.29
INA-6 MM cell line
  synergy score: 2.62
